From patent US4496591A, “Insecticidal bis-carbamate sulfides” (priority 1981, dated 1985)

How the values were obtained:
Assay type in all cases: in vivo
Parameters in all cases: key: A: excellent control; B: partial control; C: no control at 500 ppm
[1] = tested on: southern armyworm (Spodoptera eridania, (Cram.)) larvae; experiment: Southern armyworm leaf spray bait test; conditions: 500 parts per million, three days
Description: (§1) Suspensions of the test compounds were prepared by dissolving one gram of compound in 50 milliliters of acetone in which had been dissolved 0.1 gram (10 percent of the weight of compound) of an alkylphenoxy polyethoxyethanol surfactant, as an emulsifying or dispersing agent. The resulting solution was mixed into 150 milliliters of water to give roughly 200 milliliters of a suspension containing the compound in finely divided form. The thus-prepared stock suspension contained 0.5 percent by weight of compound. The concentrations in parts per million by weight employed in the tests described hereinbelow were obtained by appropriate dilutions of the stock suspension with water. The test procedures were as follows:
Larvae of the southern armyworm (Spodoptera eridania, (Cram.)), reared on Tendergreen bean plants at a temperature of 80±5° F. and a reative humidity of 50±5 percent, constituted the test insects.
The test compounds were formulated by diluting the stock suspension with water to give a suspension containing 500 parts of test compound per million parts of final formulation. Potted Tendergreen bean plants of standard height and age were placed on a revolving turntable and sprayed with 100-110 milliliters of test compound formulation by use of a DeVilbiss spray gun set at 40 psig air pressure. This application, which lasted 25 seconds, was sufficient to wet the plants to run-off. As a control, 100-110 milliliters of a water-acetone-emulsifier solution containing no test compound were also sprayed on infested plants. When dry, the paired leaves were separated and each one was placed in a 9 centimeter Petri dish lines with moistened filter paper. Five randomly selected larvae were introduced into each dish and the dishes were closed. The closed dishes were labeled and held at 80°-85° F. for three days. Although the larvae could easily consume the whole leaf within twenty-four hours, no more food was added. Larvae which were unable to move the length of the body, even upon stimulation by prodding, were considered dead.
(§2) In these tests the pesticidal activity of the compounds at the indicated dosage rate against aphid, Southern Armyworm, Bean Beetle and housefly was rated as follows: […]

[2] = tested on: bean aphid (Aphis fabae Scop.); experiment: Bean aphid foliage spray test; conditions: 500 parts per million, 24 hour
Description: as §1
Adults and nymphal stages of the bean aphid (Aphis fabae Scop.) reared on potted dwarf nasturtium plants at 68°-70° F. and 50±5 percent relative humidity, constituted the test insects. For testing purposes, the number of aphids per pot were standardized to 100-150 by trimming plants containing excess aphids.
The test compounds were formulated by diluting the stock suspension with water to give a suspension containing 500 parts of test compound per million parts of final formulation.
The potted plants (one pot per compound tested) infested with 100-150 aphids, were placed on a revolving turntable and sprayed with 100-110 milliliters of test compound formulation by use of a DeVilbiss spray gun set at 40 psig. air pressure. This application, which lasted 25 seconds, was sufficient to wet the plants to run-off. As a control, 100-110 milliliters of a water-acetone-emulsifier solution containing no test compound was also sprayed on infested plants. After spraying, the pots were placed on their sides on a sheet of white standard mimeograph paper which had been previously ruled to facilitate counting. Temperature and humidity in the test room during the 24 hour holding period were 68°-70° F. and 50±5 percent, respectively. Aphids which fell onto the paper and were unable to remain standing after being uprighted were considered dead. Aphids remaining on the plants were observed closely for movement and those which were unable to move the length of the body upon stimulation by prodding were considered dead.
as §2

[3] = tested on: Mexican bean beetle (Epilachna varivestis, Muls.) larvae; experiment: Mexican bean beetle leaf spray test; conditions: 500 parts per million, fourth instar larvae, three days
Description: as §1
Fourth instar larvae of the Mexican bean beetle (Epilachna varivestis, Muls.), reared on Tendergreen bean plants at a temperature of 80±5° F. and 50±5° F. percent relative humdity, were the test insects.
The test compounds were formulated by diluting the stock suspension with water to give a suspension containing 500 parts of test compound per million parts of final formulation. Tendergreen bean plants of standard height and age were placed on a revolving turntable and sprayed with 100-110 milliliters of test compound formulation by use of a DeVilbiss spray gun set at 40 psig air pressure. This application, which lasted 25 seconds, was sufficient to wet the plants to run-off. As a control, 100-110 milliliters of a water-acetone-emulsifier solution containing no test compound was also sprayed on infested plants. When dry, the paired leaves were separated and each was placed in a 9 centimeter Petri dish lined with moistened filter paper. Five randomly selected larvae were introduced into each dish, and the dishes were closed. The closed dishes were labeled and held at a temperature of 80±5° F., for three days. Although the larvae could easily consume the leaf within 24 to 48 hours, no more food was added. Larvae which were unable to move the length of the body, even upon stimulation, were considered dead.
as §2

CSC(C)=NOC(=O)N(C)SN(C)C(=O)Oc1cccc(C=O)c1 [Compound 3]
A: Southern Armyworm, pesticidal activity rating [1] | Aphids, pesticidal activity rating [2] | Mexican Bean Beetle, pesticidal activity rating [3]
